Active and inactive are the calls of the source. For most assays here, no stated cut-off is given here; in the data, actives have a measured Kd and inactives only a lower limit. Bounds are passed on as bounds.

The target of assay [1] is Tyrosine-protein kinase Lck (Homo sapiens, UniProt P06239).
Assay [2] addresses T1, Dual specificity mitogen-activated protein kinase kinase 3 (Homo sapiens, UniProt P46734).
T1 sequence (P46734 whole entry): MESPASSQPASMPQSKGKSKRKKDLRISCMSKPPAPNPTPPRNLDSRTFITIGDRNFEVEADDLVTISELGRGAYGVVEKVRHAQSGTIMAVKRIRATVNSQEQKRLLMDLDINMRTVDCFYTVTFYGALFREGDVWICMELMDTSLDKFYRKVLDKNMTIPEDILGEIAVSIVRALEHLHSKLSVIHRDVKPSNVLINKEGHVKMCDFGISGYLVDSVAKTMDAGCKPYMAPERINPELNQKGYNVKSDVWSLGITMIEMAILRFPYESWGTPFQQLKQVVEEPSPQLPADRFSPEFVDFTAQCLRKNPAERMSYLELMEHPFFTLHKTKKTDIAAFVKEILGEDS

Assay [3] addresses Serine/threonine-protein kinase 10 (Homo sapiens, UniProt O94804).
The target in assay [4] is T2, Serine/threonine-protein kinase A-Raf (Homo sapiens, UniProt P10398).
T2 sequence (P10398 whole entry): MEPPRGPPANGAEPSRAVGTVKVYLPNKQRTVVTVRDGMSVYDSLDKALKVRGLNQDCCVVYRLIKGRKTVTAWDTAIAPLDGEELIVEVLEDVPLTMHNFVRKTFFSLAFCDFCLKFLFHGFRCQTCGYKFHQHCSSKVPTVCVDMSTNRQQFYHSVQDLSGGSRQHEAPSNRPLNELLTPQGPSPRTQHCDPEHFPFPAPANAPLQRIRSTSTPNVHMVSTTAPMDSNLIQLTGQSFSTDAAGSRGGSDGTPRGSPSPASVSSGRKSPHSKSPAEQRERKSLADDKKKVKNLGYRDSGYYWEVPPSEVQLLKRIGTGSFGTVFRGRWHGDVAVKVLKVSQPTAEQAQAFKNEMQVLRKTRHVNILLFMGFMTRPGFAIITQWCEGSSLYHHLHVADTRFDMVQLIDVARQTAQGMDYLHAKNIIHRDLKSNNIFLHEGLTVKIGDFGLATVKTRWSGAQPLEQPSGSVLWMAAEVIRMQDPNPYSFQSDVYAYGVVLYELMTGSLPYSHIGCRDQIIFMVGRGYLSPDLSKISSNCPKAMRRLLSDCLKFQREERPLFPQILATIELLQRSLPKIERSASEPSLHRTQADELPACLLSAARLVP

Assay [5] addresses T3, Mitogen-activated protein kinase kinase kinase 2 (Homo sapiens, UniProt Q9Y2U5).
T3 sequence (Q9Y2U5 whole entry): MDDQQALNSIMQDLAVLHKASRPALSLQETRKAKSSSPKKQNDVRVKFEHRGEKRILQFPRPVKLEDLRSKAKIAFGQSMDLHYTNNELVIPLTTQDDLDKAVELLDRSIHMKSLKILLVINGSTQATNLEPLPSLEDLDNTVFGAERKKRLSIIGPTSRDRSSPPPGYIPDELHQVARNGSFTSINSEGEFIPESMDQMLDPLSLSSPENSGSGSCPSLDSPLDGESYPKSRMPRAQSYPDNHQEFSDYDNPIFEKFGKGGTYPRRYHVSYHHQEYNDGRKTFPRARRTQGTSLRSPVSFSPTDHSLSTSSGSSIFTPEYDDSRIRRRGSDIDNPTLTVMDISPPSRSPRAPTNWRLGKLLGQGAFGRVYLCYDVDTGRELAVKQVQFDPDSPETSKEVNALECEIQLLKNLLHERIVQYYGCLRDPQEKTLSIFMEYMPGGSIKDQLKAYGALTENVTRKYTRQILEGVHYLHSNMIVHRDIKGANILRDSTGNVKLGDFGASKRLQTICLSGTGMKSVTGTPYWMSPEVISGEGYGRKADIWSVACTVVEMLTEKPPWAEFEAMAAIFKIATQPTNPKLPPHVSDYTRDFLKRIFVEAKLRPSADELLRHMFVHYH

Another assay deals with LIM domain kinase 1 (Homo sapiens, UniProt P53667).
Assay [6] has as its target Citron Rho-interacting kinase (Homo sapiens, UniProt O14578).
The target in assay [7] is T4, Interleukin-1 receptor-associated kinase 4 (Homo sapiens, UniProt Q9NWZ3).
T4 sequence (Q9NWZ3 whole entry): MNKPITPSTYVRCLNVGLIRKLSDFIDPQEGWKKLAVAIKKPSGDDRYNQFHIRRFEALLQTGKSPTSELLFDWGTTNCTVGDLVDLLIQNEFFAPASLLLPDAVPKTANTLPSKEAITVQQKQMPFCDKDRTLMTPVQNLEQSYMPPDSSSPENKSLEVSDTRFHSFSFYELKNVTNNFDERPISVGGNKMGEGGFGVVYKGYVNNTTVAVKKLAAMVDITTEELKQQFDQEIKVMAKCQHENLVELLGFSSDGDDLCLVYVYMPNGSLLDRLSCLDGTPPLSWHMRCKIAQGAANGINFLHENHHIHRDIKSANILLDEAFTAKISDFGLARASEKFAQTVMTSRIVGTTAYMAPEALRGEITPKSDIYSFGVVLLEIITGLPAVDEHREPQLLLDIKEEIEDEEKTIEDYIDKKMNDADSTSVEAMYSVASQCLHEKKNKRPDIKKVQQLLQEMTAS

Citron Rho-interacting kinase, sequence (O14578 whole entry): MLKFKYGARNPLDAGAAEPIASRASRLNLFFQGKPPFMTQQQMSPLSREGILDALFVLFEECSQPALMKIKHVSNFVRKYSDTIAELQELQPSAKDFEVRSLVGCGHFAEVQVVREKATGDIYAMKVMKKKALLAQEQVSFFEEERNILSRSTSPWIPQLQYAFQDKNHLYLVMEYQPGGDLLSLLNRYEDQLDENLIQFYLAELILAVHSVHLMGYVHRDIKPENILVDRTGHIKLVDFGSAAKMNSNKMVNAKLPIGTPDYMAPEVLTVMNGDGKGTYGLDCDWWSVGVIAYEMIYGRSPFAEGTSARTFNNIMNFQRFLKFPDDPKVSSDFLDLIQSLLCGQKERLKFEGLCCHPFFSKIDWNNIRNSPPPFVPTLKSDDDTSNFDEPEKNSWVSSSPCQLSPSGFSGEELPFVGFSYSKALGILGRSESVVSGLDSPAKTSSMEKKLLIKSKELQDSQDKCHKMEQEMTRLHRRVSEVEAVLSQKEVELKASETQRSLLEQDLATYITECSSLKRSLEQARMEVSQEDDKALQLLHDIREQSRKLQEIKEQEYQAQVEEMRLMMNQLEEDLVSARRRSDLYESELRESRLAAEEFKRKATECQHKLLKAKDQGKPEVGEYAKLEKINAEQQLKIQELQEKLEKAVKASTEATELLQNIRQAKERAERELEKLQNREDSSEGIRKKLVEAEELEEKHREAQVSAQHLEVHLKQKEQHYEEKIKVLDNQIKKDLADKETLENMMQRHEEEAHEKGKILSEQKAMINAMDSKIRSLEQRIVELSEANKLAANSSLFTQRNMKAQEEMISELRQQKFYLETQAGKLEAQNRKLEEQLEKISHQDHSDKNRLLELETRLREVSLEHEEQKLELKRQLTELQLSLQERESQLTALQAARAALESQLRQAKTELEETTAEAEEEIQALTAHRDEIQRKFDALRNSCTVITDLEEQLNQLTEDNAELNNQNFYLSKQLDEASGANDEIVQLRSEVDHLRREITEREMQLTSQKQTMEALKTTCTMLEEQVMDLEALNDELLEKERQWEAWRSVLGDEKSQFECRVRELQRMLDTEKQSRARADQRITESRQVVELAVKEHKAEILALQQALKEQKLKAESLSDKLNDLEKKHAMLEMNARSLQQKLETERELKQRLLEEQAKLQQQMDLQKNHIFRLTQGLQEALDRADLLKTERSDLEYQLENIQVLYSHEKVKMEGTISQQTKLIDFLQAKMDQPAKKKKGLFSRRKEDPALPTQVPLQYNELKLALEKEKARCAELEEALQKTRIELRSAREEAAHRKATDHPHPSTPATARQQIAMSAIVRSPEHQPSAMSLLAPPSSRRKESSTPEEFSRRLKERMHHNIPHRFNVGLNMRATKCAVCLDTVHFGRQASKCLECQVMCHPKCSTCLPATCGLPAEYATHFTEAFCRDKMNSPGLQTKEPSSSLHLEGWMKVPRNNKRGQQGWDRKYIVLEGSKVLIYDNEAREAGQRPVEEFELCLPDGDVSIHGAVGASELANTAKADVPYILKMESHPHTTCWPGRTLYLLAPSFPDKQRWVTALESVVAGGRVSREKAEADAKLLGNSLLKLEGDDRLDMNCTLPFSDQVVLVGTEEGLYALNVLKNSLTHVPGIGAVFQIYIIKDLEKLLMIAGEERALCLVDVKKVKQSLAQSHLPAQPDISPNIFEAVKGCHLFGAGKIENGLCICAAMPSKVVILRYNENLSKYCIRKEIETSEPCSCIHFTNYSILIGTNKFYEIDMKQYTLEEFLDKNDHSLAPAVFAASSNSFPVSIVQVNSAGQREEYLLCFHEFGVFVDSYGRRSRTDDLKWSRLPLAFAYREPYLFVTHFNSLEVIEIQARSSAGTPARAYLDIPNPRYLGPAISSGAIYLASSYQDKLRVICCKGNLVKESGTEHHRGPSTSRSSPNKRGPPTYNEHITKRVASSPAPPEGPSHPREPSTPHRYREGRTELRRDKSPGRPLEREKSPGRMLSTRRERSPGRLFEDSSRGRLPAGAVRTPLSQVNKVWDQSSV
LIM domain kinase 1, sequence (P53667 whole entry, the tested form may be a part): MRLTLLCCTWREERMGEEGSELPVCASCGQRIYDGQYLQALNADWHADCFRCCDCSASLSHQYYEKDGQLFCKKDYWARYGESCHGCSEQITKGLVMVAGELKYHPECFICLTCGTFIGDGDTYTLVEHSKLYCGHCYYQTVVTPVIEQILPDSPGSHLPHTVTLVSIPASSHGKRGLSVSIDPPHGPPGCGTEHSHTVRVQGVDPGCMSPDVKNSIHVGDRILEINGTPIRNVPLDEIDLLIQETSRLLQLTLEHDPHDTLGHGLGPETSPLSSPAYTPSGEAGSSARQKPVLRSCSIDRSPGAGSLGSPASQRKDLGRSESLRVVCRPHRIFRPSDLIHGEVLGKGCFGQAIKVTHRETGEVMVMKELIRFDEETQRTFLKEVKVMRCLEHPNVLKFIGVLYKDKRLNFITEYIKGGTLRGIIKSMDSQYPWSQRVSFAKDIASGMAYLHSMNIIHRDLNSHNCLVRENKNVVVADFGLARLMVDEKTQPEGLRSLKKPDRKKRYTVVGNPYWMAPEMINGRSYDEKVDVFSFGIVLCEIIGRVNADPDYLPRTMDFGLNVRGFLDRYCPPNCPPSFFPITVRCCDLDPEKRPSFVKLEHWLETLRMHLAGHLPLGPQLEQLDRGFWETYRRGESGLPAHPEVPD
Serine/threonine-protein kinase 10, sequence (O94804 whole entry): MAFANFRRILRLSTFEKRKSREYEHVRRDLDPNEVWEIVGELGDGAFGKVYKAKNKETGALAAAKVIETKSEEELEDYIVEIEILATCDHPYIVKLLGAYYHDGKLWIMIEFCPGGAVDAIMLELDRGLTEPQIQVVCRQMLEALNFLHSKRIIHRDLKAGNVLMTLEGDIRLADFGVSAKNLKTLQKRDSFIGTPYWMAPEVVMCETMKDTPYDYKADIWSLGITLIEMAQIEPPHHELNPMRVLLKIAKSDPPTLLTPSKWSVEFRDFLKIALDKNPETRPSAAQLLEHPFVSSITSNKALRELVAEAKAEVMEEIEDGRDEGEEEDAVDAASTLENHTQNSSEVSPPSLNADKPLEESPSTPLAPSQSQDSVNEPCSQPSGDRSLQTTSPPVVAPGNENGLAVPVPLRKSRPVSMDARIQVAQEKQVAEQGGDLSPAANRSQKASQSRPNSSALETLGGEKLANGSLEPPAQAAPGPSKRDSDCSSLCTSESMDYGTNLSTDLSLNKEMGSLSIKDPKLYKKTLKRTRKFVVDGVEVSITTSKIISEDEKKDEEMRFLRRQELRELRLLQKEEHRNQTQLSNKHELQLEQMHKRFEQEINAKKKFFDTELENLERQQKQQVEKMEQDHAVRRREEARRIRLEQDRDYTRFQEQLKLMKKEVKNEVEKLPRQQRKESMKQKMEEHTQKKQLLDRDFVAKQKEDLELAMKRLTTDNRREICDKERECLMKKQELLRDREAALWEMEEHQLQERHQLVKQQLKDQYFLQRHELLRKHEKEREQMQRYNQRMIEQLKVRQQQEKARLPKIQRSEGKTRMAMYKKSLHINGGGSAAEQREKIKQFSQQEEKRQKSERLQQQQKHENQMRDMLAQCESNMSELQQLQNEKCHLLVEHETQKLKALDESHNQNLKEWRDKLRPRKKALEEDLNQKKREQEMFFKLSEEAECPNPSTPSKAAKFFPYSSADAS
Tyrosine-protein kinase Lck, sequence (P06239 whole entry): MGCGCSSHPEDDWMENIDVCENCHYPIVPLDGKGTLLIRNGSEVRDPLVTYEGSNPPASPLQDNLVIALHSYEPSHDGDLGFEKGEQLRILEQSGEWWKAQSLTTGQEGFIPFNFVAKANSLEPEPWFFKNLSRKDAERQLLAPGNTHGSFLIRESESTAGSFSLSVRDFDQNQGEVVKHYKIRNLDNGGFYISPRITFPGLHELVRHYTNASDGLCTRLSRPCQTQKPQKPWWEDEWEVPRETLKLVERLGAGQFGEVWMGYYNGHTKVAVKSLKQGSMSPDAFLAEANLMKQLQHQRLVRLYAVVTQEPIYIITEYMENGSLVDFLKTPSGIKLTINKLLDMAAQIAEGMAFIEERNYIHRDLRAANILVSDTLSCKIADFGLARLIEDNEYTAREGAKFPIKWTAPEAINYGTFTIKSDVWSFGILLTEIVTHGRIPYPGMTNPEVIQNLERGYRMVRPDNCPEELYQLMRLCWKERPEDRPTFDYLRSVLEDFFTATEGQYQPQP

Usually Kd stands for the free concentration of one partner at which half of the binding sites on the other are occupied at equilibrium, for simple one-to-one binding. For `COc1cc(Nc2ncc3c(n2)-c2ccc(Cl)cc2C(c2c(F)cccc2OC)=NC3)ccc1C(=O)O` [ALISERTIB], the Kd in assay [1], in assay [2], in assay [3], in assay [4] and in assay [5] was > 30 µM (inactive) throughout.

For the compound `CNC(=O)c1ccccc1Sc1ccc2c(/C=C/c3ccccn3)n[nH]c2c1` [AXITINIB], the Kd in assay [4] was > 30 µM (inactive).

As to `COc1cc2ncnc(Oc3cccc(NC(=O)Nc4cc(C(C)(C)C(F)(F)F)on4)c3)c2cc1OC` [CEP-32496], the Kd (at LIM domain kinase 1; in assay [6]; in assay [2]; in assay [3]; in assay [4]; in assay [7]) was > 30 µM (inactive) in each case. Also, the Kd in assay [5] is > 30 µM (inactive).

Consider `Cn1cc(C2=C(c3cn(C4CCN(Cc5ccccn5)CC4)c4ccccc34)C(=O)NC2=O)c2ccccc21` [ENZASTAURIN], for which the Kd in assay [4] is > 30 µM (inactive).

With `C[C@@H](Oc1cc(-n2cnc3ccc(CN4CCN(C)CC4)cc32)sc1C(N)=O)c1ccccc1C(F)(F)F` [GSK-461364], the Kd in assay [4] was > 30 µM (inactive).

Turning to `CNC(=O)c1nn(C)c2c1C(C)(C)Cc1cnc(Nc3ccc(N4CCN(C)CC4)cc3)nc1-2` [MILCICLIB], the Kd on LIM domain kinase 1 is > 30 µM (inactive); in assay [6], > 30 µM (inactive); in assay [2], > 30 µM (inactive); in assay [3] it was > 30 µM (inactive); in assay [4] it was > 30 µM (inactive); in assay [7], 26.1 µM (active). Further, the Kd in assay [5] is > 30 µM (inactive).

As for `Cc1[nH]c(/C=C2\C(=O)Nc3ccccc32)c(C)c1CCC(=O)O` [ORANTINIB], the Kd in assay [6], in assay [2], in assay [4] and in assay [5] was > 30 µM (inactive) each time.

In the case of `NC(=O)c1c(OCc2c(F)cc(Br)cc2F)nsc1NC(=O)NCCCCN1CCCC1` [OSI-632], the Kd in assay [6] was > 30 µM (inactive); in assay [2], > 30 µM (inactive); in assay [3], 0.515 µM (active); in assay [4] it was > 30 µM (inactive).

With `CCOc1cc2ncc(C#N)c(Nc3ccc(F)c(Cl)c3)c2cc1NC(=O)/C=C/CN(C)C` [PELITINIB], the Kd (on LIM domain kinase 1; in assay [6]; in assay [2]; in assay [4]; in assay [7]; in assay [5]) was > 30 µM (inactive) throughout.

Turning to `CC(=O)NCC(=O)N1[C@@H]2CC[C@H]1c1ccc(Nc3ncc(C(F)(F)F)c(NC4CCC4)n3)cc12` [PF-03814735], the Kd in assay [6] was > 30 µM (inactive); in assay [2] it was > 30 µM (inactive); in assay [3], 0.309 µM (active); in assay [4], > 30 µM (inactive); in assay [5] it was 0.164 µM (active).

As for `CNC(=O)c1cc(Oc2ccc(NC(=O)Nc3cc(C(C)(C)C)nn3-c3ccc4ncccc4c3)c(F)c2)ccn1` [REBASTINIB], the Kd is 0.535 µM (active) on LIM domain kinase 1; > 30 µM (inactive) in assay [6]; > 30 µM (inactive) in assay [2]; 33.7 µM (active) in assay [4]; 23.2 µM (active) in assay [7]; > 30 µM (inactive) in assay [5].

In the case of `O=C(NOCCO)c1cc(CN2OCCCC2=O)c(F)c(F)c1Nc1ccc(I)cc1F` [RO-4987655], the Kd in assay [4] is > 30 µM (inactive).

Turning to `N#CC[C@H](C1CCCC1)n1cc(-c2ncnc3[nH]ccc23)cn1` [RUXOLITINIB], the Kd in assay [4] was > 30 µM (inactive).

On to `CN1CCN(CCOc2cc(OC3CCOCC3)c3c(Nc4c(Cl)ccc5c4OCO5)ncnc3c2)CC1` [SARACATINIB], for which the Kd at LIM domain kinase 1 is > 30 µM (inactive); in assay [6] it was > 30 µM (inactive); in assay [2], > 30 µM (inactive); in assay [3], 11.7 µM (active); in assay [4], > 30 µM (inactive); in assay [7], > 30 µM (inactive). Also, in assay [5], the Kd is > 30 µM (inactive).
